# What was measured:
# Human CD73 = molecular target: T1, Human CD73 (Homo sapiens, UniProt P21589); experiment: CD73 Enzyme Assay; assay type: biochemical; settings: 0.25 nM hCD73, 25 μM AMP, kinetic read at 360 nm; read-out: CD73 Enzyme Assay IC50
# T1 construct: purchased R&D Systems; host or cells: CHO cells
# T1 sequence (P21589 27-549): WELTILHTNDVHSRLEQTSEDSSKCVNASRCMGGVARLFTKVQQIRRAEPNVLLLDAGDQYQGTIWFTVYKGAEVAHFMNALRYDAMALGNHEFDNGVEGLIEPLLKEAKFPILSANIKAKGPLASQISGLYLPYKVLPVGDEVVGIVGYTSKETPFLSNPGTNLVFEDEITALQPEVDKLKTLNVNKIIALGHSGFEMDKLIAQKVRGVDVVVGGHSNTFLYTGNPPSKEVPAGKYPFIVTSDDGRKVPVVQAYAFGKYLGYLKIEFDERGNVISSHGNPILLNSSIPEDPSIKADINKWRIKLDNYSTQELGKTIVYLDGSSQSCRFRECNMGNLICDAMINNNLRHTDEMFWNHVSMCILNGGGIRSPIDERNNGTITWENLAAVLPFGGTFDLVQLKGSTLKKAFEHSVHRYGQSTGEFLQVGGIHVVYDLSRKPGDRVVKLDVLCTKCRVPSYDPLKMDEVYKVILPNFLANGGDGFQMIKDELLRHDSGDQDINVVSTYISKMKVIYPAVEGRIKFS
# [1] = molecular target: T2, CD73 on U138 human neuroglioma cells (Homo sapiens, UniProt P21589); experiment: CD73 Cell-Based Assay; settings: U138 cells, AMP substrate, 2 hours at 37° C., inorganic phosphate by malachite green
# T2 construct: U138 cells were obtained from ATCC and cultured in DMEM with 10% FBS; host or cells: U138 human neuroglioma cells
# T2 sequence (P21589 27-549): T1 sequence (P21589 27-549)
# Outline: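 Whole U138 cells washed free of phosphate were incubated with 200 μM AMP (mixture concentration before equal-volume addition) plus compound in HEPES-buffered saline, pH 7.4, for 2 h at 37 °C, 5% CO2. Adenosine-forming activity read as inorganic phosphate released into supernatant by malachite green.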
SMILES,IC50 (Human CD73) [nM],IC50 [1] [nM]
"CCOc1nc(NC2CCCC2)c2ccn([C@@H]3O[C@H](COCP(=O)(O)O)[C@@H](O)[C@H]3O)c2n1 [Compound 262, [(2R,3S,4R,5R)-5-[4-(cyclopentylamino)-2-ethoxy-pyrrolo[2,3-d]-pyrimidin-7-yl]-3,4-dihydroxy-tetrahydro-furan-2-yl]methoxy-methylphosphonic acid]",10 to 100,10 to 100
"C[C@H](Nc1nc(Cl)nc2c1cnn2[C@@H]1O[C@H](COCP(=O)(O)O)[C@@H](O)[C@H]1O)c1ccc(F)cc1 [Compound 265, [(2R,3S,4R,5R)-5-[6-chloro-4-[[(1S)-1-(4-fluorophenyl)ethyl]-amino]pyrazolo[3,4-d]-pyrimidin-1-yl]-3,4-dihydroxy-tetrahydro-furan-2-yl]methoxy-methylphosphonic acid]",10 to 100,10 to 100
"C[C@@H](Nc1nc(Cl)nc2c1cnn2[C@@H]1O[C@H](COCP(=O)(O)O)[C@@H](O)[C@H]1O)c1ccc(F)cc1 [Compound 269, [(2R,3S,4R,5R)-5-[6-chloro-4-[[(1R)-1-(4-fluorophenyl)ethyl]-amino]pyrazolo[3,4-d]-pyrimidin-1-yl]-3,4-dihydroxy-tetrahydro-furan-2-yl]methoxy-methylphosphonic acid]",10 to 100,< 10
"CC(C)(O)C#Cc1nc(NC2CCCC2)c2ccn([C@@H]3O[C@H](COCP(=O)(O)O)[C@@H](O)[C@H]3O)c2n1 [Compound 272, [(2R,3S,4R,5R)-5-[4-(cyclopentylamino)-2-(3-hydroxy-3-methyl-but-1-ynyl)pyrrolo[2,3-d]pyrimidin-7-yl]-3,4-dihydroxy-tetrahydro-furan-2-yl]methoxy-methylphosphonic acid]",10 to 100,< 10
"O=P(O)(O)COC[C@H]1O[C@@H](n2ncc3c(N4CC5CC5C4)nc(Cl)nc32)[C@H](O)[C@@H]1O (stereo partly drawn) [Compound 280, [(2R,3S,4R,5R)-5-[4-(3-azabicyclo[3.1.0]-hexan-3-yl)-6-chloro-pyrazolo[3,4-d]-pyrimidin-1-yl]-3,4-dihydroxy-tetrahydro-furan-2-yl]methoxy-methylphosphonic acid]",< 10,< 10
"O=P(O)(O)COC[C@H]1O[C@@H](n2ccc3c(N4CCC[C@@H]4CO)nc(Cl)nc32)[C@H](O)[C@@H]1O [Compound 283, [(2R,3S,4R,5R)-5-[2-chloro-4-[(2R)-2-(hydroxymethyl)-pyrrolidin-1-yl]-pyrrolo[2,3-d]-pyrimidin-7-yl]-3,4-dihydroxy-tetrahydro-furan-2-yl]methoxy-methylphosphonic acid]",10 to 100,100 to 1000
"C[C@H]1CCCN1c1nc(Cl)nc2c1ccn2[C@@H]1O[C@H](COCP(=O)(O)O)[C@@H](O)[C@H]1O [Compound 284, [(2R,3S,4R,5R)-5-[2-chloro-4-[(2S)-2-methylpyrrolidin-1-yl]pyrrolo[2,3-d]-pyrimidin-7-yl]-3,4-dihydroxy-tetrahydro-furan-2-yl]methoxy-methylphosphonic acid]",10 to 100,10 to 100
"O=P(O)(O)COC[C@H]1O[C@@H](c2c[nH]c3c(N4CC5CCCC5C4)nc(Cl)nc23)[C@H](O)[C@@H]1O (stereo partly drawn) [Compound 285, ((((2R,3S,4R,5S)-5-(2-chloro-4-(hexahydrocyclopenta[c]pyrrol-2 (1H)-yl)-5H-pyrrolo[3,2-d]pyrimidin-7-yl)-3,4-dihydroxytetrahydrofuran-2-yl)methoxy)methyl)phosphonic acid]",< 10,< 10
"O=P(O)(O)CS(=O)(=O)C[C@H]1O[C@@H](n2ncc3c(NC4CCCC4)nc(Cl)nc32)[C@H](O)[C@@H]1O [Compound 287, [(2S,3S,4R,5R)-5-[6-chloro-4-(cyclopentyl-amino)pyrazolo[3,4-d]-pyrimidin-1-yl]-3,4-dihydroxy-tetrahydro-furan-2-yl]methyl-sulfonylmethylphos-phonic acid]",< 10,< 10
"N#Cc1nc(N2CC3CC3C2)c2cnn([C@@H]3O[C@H](CS(=O)(=O)CP(=O)(O)O)[C@@H](O)[C@H]3O)c2n1 (stereo partly drawn) [Compound 288, [(2S,3S,4R,5R)-5-[4-(3-azabicyclo[3.1.0]-hexan-3-yl)-6-cyano-pyrazolo[3,4-d]-pyrimidin-1-yl]-3,4-dihydroxy-tetrahydro-furan-2-yl]methyl-sulfonylmethylphos-phonic acid]",10 to 100,10 to 100

# The next lines start with the values.
IC50 (Human CD73) [nM],IC50 [1] [nM],SMILES
< 10,< 10,"C[C@@H](O)COc1nc(NC2CCCC2)c2ccn([C@@H]3O[C@H](COCP(=O)(O)O)[C@@H](O)[C@H]3O)c2n1 [Compound 261, [(2R,3S,4R,5R)-5-[4-(cyclopentylamino)-2-[(2R)-2-hydroxy-propoxy]pyrrolo[2,3-d]pyrimidin-7-yl]-3,4-dihydroxy-tetrahydro-furan-2-yl]methoxy-methylphosphonic acid]"
< 10,< 10,"CC(O)COc1nc(NC2CCCC2)c2ccn([C@@H]3O[C@H](COCP(=O)(O)O)[C@@H](O)[C@H]3O)c2n1 (stereo partly drawn) [Compound 263, [(2R,3S,4R,5R)-5-[4-(cyclopentylamino)-2-(2-hydroxypropoxy)-pyrrolo[2,3-d]pyrimidin-7-yl]-3,4-dihydroxy-tetrahydrofuran-2-yl]-methoxymethylphos-phonic acid]"
< 10,< 10,"CC#Cc1nc(NC2CCCC2)c2ccn([C@@H]3O[C@H](COCP(=O)(O)O)[C@@H](O)[C@H]3O)c2n1 [Compound 266, [(2R,3S,4R,5R)-5-[4-(cyclopentylamino)-2-prop-1-ynyl-pyrrolo-[2,3-d]pyrimidin-7-yl]-3,4-dihydroxy-tetrahydrofuran-2-yl]-methoxymethylphos-phonic acid]"
< 10,< 10,"C[C@@H](O)C#Cc1nc(NC2CCCC2)c2ccn([C@@H]3O[C@H](COCP(=O)(O)O)[C@@H](O)[C@H]3O)c2n1 [Compound 267, [(2R,3S,4R,5R)-5-[4-(cyclopentylamino)-2-[(3R)-3-hydroxybut-1-ynyl]pyrrolo[2,3-d]-pyrimidin-7-yl]-3,4-dihydroxy-tetrahydro-furan-2-yl]methoxy-methylphosphonic acid]"
< 10,< 10,"O=P(O)(O)COC[C@H]1O[C@@H](n2ncc3c(NC4CCC4)nc(Cl)nc32)[C@H](O)[C@@H]1O [Compound 270, [(2R,3S,4R,5R)-5-[6-chloro-4-(cyclobutyl-amino)pyrazolo[3,4-d]-pyrimidin-1-yl]-3,4-dihydroxy-tetrahydro-furan-2-yl]methoxy-methylphosphonic acid]"
< 10,< 10,"O=P(O)(O)COC[C@H]1O[C@@H](n2ncc3c(NC4CC(F)(F)C4)nc(Cl)nc32)[C@H](O)[C@@H]1O [Compound 271, [(2R,3S,4R,5R)-5-[6-chloro-4-[(3,3-difluoro-cyclobutyl)amino]-pyrazolo[3,4-d]-pyrimidin-1-yl]-3,4-dihydroxy-tetrahydro-furan-2-yl]methoxy-methylphosphonic acid]"
< 10,< 10,"O=P(O)(O)COC[C@H]1O[C@@H](n2ncc3c(N4CC5CCCC5C4)nc(Cl)nc32)[C@H](O)[C@@H]1O (stereo partly drawn) [Compound 274, [(2R,3S,4R,5R)-5-[4-(3,3a,4,5,6,6a-hexa-hydro-1H-cyclopenta-[c]pyrrol-2-yl)-6-chloro-pyrazolo[3,4-d]-pyrimidin-1-yl]-3,4-dihydroxy-tetrahydro-furan-2-yl]methoxy-methylphosphonic acid]"
< 10,< 10,"O=P(O)(O)COC[C@H]1O[C@@H](n2ncc3c(N4CCC(F)(F)C4)nc(Cl)nc32)[C@H](O)[C@@H]1O [Compound 275, [(2R,3S,4R,5R)-5-[6-chloro-4-(3,3-difluoro-pyrrolidin-1-yl)-pyrazolo[3,4-d]-pyrimidin-1-yl]-3,4-dihydroxy-tetrahydro-furan-2-yl]methoxy-methylphosphonic acid]"
< 10,< 10,"O=P(O)(O)COC[C@H]1O[C@@H](n2ccc3c(NC4CCCC4)nc(C#CC4(O)CC4)nc32)[C@H](O)[C@@H]1O [Compound 276, ((((2R,3S,4R,5R)-5-(4-(cyclopentylamino)-2-((1-hydroxycyclopropyl)ethynyl)-7H-pyrrolo[2,3-d]pyrimidin-7-yl)-3,4-dihydroxytetrahydrofuran-2-yl)methoxy)methyl)phosphonic acid]"
< 10,< 10,"O=P(O)(O)COC[C@H]1O[C@@H](n2ncc3c(NC4CC5CC5C4)nc(Cl)nc32)[C@H](O)[C@@H]1O (stereo partly drawn) [Compound 279, [(2R,3S,4R,5R)-5-[4-(3-bicyclo[3.1.0]hexa-nylamino)-6-chloro-pyrazolo[3,4-d]-pyrimidin-1-yl]-3,4-dihydroxy-tetrahydro-furan-2-yl]methoxy-methylphosphonic acid]"

# Reference: patent publication US11591355B2 (Peloton Therapeutics, Inc., priority 2017, dated 2023)
